Measured values published in paper PMC6315694, “Synthesis of Pseudellone Analogs and Characterization as Novel T-type Calcium Channel Blockers” (Marine Drugs, 2018).

Columns and labels:
[1] = tested on: L-type calcium channel (CaV1); experiment: HVA calcium channel FLIPR assay, L-type (SH-SY5Y cells); format: cell-based, human; conditions: 1 µM CVID present, N = 3, mean ± SEM, read-out: IC50 CaV1 (HVA CaVs)
Protocol: (§1) The human embryonic kidney 293 (HEK 293) cell lines (from Emmanuel Bourinet, Montpellier, France) stably expressing CaV3.2 or CaV3.3 were cultured under 5% carbon dioxide at 37 °C in Dulbecco’s Modified Eagle Medium (DMEM) Glutamax (Gibco, Life Technologies, Carlsbad, CA, USA) supplemented with 10% (v/v) fetal bovine serum (FBS), 100 U/mL penicillin, 100 μg/mL streptomycin (Gibco, Life Technologies), and 750 μg/mL geneticin (G418) (Gibco, Life Technologies). The Chinese Hamster Ovary (CHO) cell lines (Emmanuel Bourinet, Montpellier, France) expressing CaV3.1 were cultured under 5% carbon dioxide at 37 °C in Alpha Minimum Essential Media (MEM) Glutamax (Gibco, Life Technologies), supplemented with 10% (v/v) fetal bovine serum (FBS) and 300 μg/mL geneticin (G418) (Gibco, Life Technologies). The human neuroblastoma SH-SY5 Y cells (Victor Diaz, Goettingen, Germany) were cultured under 5% carbon dioxide at 37 °C in RPMI 1640 antibiotic-free medium (Invitrogen, Carlsbad, CA, USA), supplemented with 15% FBS and 2 mM GlutaMAX™ (Invitrogen). D-PBS (Gibco, Life Technologies) was used to wash the cells, and 0.25% Trypsin-EDTA (Gibco, Life Technologies) was used to detach cells from the flask surface. They were split in a ratio of 1:5 (ideally 1000 cells/cm^2) when they reached 70%–80% confluence (every 2–3 days). Transiently transfected CaV3.1HEK293 T cells were used in FLIPR Assays. HEK 293 T cells were cultured under 5% carbon dioxide at 37 °C in DMEM supplemented with 10% (v/v) FBS. D-PBS was used to wash the cells, and 0.25% Trypsin-EDTA was used to detach cells from the flask surface. The cells were split and seeded at 6 million cells per T175 flask, to reach 70%–80% confluence after 24 h. The next day, 12 μg DNA of human CaV3.1 was incubated in 900 μL serum-free DMEM with 36 μL FuGENE HD transfection reagent (Promega Corporation, Madison, WI, US) (1:3 DNA/Fugene ratio) for 20 min, and then the mixture was added into the cell flask slowly, drop by drop. After the transfection, the cells were cultured under 5% carbon dioxide at 37 °C for 24 h and then moved to a 28 °C incubator.
SH-SY5Y cells were seeded into 384-well black wall clear bottom plates at a density of 15,000 cells per well, resulting in 90%–95% confluence after 24 h. […] The fluorescence readings were recorded and converted as described previously, and agonist containing 90 mM KCl + 5 mM CaCl2 was used in the second addition.
Data were plotted and analyzed using GraphPad Prism v7.0 (GraphPad Software Inc., San Diego, CA, USA). […]

human CaV3.1 = target: T1, human CaV3.1 (Homo sapiens, UniProt O43497); experiment: T-type calcium channel window current FLIPR assay, CaV3.1; format: cell-based; conditions: for IC50: FLIPR window current assay, transiently transfected HEK293T, N = 3, mean ± SEM, read-out: IC50 CaV3.1 (LVA CaVs)
T1 construct: expressed in transfected cells; host or cells: HEK 293T, transient transfection (FuGENE HD)
T1 sequence (O43497 whole entry): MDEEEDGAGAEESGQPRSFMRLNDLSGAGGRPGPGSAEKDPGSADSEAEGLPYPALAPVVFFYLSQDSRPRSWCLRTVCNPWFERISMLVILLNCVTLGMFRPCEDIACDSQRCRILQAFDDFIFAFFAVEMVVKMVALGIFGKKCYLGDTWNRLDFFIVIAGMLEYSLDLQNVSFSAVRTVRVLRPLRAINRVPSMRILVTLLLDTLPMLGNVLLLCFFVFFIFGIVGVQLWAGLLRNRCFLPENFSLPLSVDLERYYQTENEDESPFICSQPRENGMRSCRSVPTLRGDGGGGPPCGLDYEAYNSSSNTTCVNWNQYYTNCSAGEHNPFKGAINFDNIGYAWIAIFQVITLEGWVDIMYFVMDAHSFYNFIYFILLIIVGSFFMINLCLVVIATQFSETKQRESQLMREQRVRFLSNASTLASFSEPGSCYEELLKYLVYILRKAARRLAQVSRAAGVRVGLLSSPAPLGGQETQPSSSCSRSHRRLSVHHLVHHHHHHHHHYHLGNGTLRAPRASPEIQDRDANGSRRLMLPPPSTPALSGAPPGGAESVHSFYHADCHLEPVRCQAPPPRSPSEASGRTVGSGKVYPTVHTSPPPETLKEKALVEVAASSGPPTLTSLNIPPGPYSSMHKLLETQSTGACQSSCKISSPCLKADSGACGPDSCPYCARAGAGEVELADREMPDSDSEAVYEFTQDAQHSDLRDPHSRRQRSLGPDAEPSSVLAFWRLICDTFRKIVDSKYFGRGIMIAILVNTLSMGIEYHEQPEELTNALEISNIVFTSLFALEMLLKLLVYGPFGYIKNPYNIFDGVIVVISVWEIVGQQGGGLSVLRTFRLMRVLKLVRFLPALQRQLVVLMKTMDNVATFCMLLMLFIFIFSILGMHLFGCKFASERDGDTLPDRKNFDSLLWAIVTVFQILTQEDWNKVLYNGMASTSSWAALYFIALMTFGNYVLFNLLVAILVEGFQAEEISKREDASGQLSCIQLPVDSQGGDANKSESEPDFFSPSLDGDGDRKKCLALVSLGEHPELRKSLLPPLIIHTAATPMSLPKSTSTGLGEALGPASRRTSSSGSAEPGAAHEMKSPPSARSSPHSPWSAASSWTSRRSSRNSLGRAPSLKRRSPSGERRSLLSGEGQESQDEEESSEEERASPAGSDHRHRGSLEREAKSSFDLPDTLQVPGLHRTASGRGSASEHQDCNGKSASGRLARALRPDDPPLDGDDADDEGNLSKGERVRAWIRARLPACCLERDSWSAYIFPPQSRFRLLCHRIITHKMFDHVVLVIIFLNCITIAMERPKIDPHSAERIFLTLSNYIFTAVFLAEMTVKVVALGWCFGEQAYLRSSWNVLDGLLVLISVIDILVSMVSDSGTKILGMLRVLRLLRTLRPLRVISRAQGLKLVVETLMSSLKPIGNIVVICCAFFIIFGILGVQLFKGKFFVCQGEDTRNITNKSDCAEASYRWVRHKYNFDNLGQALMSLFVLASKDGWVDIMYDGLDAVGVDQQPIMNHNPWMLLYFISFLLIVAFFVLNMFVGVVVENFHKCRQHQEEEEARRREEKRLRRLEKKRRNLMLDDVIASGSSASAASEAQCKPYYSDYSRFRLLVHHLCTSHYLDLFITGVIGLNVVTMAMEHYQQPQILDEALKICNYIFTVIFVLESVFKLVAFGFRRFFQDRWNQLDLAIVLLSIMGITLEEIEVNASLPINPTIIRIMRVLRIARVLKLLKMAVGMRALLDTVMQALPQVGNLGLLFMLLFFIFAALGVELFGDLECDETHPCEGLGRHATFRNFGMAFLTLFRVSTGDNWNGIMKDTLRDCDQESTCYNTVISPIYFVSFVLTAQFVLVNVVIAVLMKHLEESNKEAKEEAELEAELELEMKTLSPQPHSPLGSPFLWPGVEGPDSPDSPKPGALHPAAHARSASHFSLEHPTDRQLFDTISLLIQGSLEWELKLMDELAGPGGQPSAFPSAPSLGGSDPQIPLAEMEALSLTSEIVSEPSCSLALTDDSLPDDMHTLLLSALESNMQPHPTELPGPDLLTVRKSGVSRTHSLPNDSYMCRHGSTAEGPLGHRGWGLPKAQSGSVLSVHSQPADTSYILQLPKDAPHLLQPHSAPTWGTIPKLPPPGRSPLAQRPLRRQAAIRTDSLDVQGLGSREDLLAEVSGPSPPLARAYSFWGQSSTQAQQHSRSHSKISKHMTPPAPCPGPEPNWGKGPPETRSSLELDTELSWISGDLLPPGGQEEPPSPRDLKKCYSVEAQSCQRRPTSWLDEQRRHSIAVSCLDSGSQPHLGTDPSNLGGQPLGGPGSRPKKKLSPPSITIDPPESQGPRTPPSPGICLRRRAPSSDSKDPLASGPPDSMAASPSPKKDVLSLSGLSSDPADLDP
Protocol: as §1
(§2) HEK 293 cells stably expressing CaV3.2 or CaV3.3 were seeded into 384-well black wall clear bottom plates (Corning, Lowell, MA, USA) at a density of 30,000 cells per well. Transiently transfected CaV3.1HEK293 T cells were seeded into 384-well black wall clear bottom plates at a density of 60,000 cells per well. Once the cells reached 90%–95% confluence after 24 h, the media were removed from the wells and replaced with 20 μL of 10% calcium 4 dye (Molecular Devices, Sunnyvale, CA, USA) in HBSS-HEPES (containing 5 mM KCl, 10 mM HEPES, 140 mM NaCl, 10 mM glucose, and 0.5 mM CaCl2, pH 7.4) with 0.1% bovine serum albumin (BSA). The cells were incubated for 30 min at 37 °C in the presence of 5% carbon dioxide. Each well on the reagent plates for the first addition contained 15 μL different concentrations of compounds dissolved in HBSS-HEPES containing 0.1% BSA and <0.1% DMSO and was incubated for 20 min after loading. Positive and negative controls contained 15 μL of HBSS-HEPES (0.1% BSA) alone. The plates were placed in the FLIPR^TETRA (Molecular Devices, Sunnyvale, CA, USA) programmed to measure maximum fluorescence intensity following a second addition of the agonist 5 mM CaCl2. The data acquisition parameters were adjusted as follows: Baseline fluorescence of 1500–2000 arbitrary fluorescence units (AFU), emission wavelength of 515–575 nm, and excitation wavelength of 470–495 nm. HBSS-HEPES (0.1% BSA) was used in the second addition as a negative control. One fluorescence reading was taken before the second addition. Then the fluorescence readings were recorded every two seconds for 300 s. Raw fluorescence readings in the form of relative light units were converted to response over baseline using ScreenWorks® (Molecular Devices, version 3.2.0.14) software.
(§3) Data were plotted and analyzed using GraphPad Prism v7.0 (GraphPad Software Inc., San Diego, CA, USA).

N-type CaV2.2 = target: T2, N-type CaV2.2 (Homo sapiens, UniProt Q00975); experiment: HVA calcium channel FLIPR assay, N-type (SH-SY5Y cells); format: cell-based; conditions: for IC50: 10 µM nifedipine present, N = 3, mean ± SEM, read-out: IC50 CaV2.2 (HVA CaVs)
T2 construct: endogenous in cells
Protocol: as §1
SH-SY5Y cells were seeded into 384-well black wall clear bottom plates at a density of 15,000 cells per well, resulting in 90%–95% confluence after 24 h. The media were then removed from the wells and replaced with 20 μL of 10% calcium 4 dye (Molecular Devices) in physiological salt solution (PSS) (containing 5.9 mM KCl, 1.4 mM MgCl2, 10 mM HEPES, 1.2 mM NaH2 PO4, 5 mM NaHCO3, 140 mM NaCl, 11.5 mM glucose, and 1.8 mM CaCl2, pH 7.4) with 0.1% BSA. […] Positive control on the first reagent plate contained 15 μL of PSS (0.1% BSA), whereas PSS (0.1% BSA) containing 1 µM CVID and 10 µM nifedipine (final concentration) was used as a negative control. The fluorescence readings were recorded and converted as described previously, and agonist containing 90 mM KCl + 5 mM CaCl2 was used in the second addition.
Data were plotted and analyzed using GraphPad Prism v7.0 (GraphPad Software Inc., San Diego, CA, USA). A four-parameter logistic Hill equation with variable Hill coefficients was fitted to the data for concentration-response curves. Data are means ± SEM of n independent experiments. Statistical analysis was performed with a paired Student’s t-test with statistical significance at p < 0.05.

[2] = tested on: voltage-gated calcium channels (VGCCs); experiment: FLIPR cell-based assays on VGCCs (overall statement); set-up: species or system human; conditions: all VGCC FLIPR assays (CaV3.1, CaV3.2, CaV3.3, CaV2.2, CaV1)
Protocol: as §2

CaV3.3 = CaV3.3 (Homo sapiens, UniProt Q9P0X4); experiment: T-type calcium channel window current FLIPR assay, CaV3.3; format: cell-based; conditions: for IC50: FLIPR window current assay, HEK 293 stable, N = 3, mean ± SEM, read-out: IC50 CaV3.3 (LVA CaVs)
Protocol: as §1, §2, §3

CaV3.2 = CaV3.2 (Homo sapiens, UniProt O95180); experiment: T-type calcium channel window current FLIPR assay, CaV3.2; format: cell-based; conditions: FLIPR window current assay, HEK 293 stable, N = 3, mean ± SEM; read-out: IC50 CaV3.2 (LVA CaVs)
CaV3.2, sequence (O95180 whole entry): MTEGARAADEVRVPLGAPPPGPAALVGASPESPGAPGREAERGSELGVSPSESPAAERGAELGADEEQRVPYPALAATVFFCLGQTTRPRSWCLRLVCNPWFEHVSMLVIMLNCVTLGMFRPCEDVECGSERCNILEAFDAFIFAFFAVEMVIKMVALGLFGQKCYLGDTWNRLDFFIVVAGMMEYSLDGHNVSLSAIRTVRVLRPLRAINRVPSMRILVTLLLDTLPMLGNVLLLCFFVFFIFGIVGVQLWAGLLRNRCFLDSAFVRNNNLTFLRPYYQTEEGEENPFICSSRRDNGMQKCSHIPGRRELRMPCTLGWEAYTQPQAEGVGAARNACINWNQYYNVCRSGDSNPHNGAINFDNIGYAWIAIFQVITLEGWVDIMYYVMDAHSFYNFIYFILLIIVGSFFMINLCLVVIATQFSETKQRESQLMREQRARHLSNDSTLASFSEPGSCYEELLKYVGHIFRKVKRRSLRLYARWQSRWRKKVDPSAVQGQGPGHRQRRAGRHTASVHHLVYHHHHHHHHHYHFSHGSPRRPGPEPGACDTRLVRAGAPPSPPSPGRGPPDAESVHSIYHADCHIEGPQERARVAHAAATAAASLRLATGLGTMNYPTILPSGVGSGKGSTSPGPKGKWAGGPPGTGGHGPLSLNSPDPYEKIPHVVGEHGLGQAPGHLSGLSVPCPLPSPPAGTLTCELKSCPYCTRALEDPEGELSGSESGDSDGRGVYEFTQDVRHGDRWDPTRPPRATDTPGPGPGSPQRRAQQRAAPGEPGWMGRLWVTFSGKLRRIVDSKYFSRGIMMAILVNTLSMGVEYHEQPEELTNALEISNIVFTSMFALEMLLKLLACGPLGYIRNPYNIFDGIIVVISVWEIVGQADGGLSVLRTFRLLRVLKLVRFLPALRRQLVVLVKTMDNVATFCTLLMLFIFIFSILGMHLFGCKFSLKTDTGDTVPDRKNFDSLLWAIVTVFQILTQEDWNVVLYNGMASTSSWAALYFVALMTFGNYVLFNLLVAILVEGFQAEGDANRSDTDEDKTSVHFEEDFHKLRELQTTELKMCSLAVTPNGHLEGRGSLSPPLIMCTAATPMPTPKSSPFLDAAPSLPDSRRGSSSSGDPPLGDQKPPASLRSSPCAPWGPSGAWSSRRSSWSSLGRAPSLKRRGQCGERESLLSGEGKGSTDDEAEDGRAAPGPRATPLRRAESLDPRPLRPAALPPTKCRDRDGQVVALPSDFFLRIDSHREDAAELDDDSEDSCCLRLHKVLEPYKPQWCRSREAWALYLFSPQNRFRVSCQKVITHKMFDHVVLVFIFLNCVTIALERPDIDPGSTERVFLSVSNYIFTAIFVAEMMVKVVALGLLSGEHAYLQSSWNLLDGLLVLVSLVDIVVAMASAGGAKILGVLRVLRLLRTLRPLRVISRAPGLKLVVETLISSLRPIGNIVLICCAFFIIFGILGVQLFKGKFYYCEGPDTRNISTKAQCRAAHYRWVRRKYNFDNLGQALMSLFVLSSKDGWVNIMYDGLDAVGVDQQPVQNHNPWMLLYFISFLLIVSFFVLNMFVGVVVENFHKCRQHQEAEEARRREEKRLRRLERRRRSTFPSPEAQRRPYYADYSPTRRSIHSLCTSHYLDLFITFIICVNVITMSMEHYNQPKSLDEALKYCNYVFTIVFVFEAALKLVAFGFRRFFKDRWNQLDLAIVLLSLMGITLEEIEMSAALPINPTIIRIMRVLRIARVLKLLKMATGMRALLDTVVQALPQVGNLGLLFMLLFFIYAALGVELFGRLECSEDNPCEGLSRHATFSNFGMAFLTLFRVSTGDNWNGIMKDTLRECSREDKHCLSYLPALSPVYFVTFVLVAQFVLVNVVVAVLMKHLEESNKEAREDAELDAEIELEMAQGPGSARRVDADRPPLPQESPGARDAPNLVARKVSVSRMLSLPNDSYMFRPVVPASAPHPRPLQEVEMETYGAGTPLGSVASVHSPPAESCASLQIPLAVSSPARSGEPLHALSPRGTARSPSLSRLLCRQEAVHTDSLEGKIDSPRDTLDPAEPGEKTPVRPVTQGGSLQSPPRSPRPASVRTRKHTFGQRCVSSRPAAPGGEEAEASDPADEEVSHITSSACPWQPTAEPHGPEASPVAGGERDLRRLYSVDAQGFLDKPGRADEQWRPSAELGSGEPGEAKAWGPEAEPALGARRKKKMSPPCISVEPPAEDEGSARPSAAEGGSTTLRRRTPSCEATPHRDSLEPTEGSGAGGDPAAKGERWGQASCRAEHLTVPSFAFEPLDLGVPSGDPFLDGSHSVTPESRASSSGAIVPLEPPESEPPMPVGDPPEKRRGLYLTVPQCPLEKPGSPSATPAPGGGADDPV
Protocol: as §1, §2, §3

[3] = tested on: T-type calcium channel (CaV3.x); set-up: method as in PMID 22344687, PMID 19582593; conditions: activated current generated from the channel-closed state; cited from earlier work

Compound | IC50 [1] [µM] | Kind of block of CaV3.1, in words (human CaV3.1; FLIPR) | IC50 (human CaV3.1) [µM] | Emax (human CaV3.1; FLIPR, n = 3, read-out: Emax, inhibition for CaV3.1) [%] | Kind of block of CaV2.2, in words (N-type CaV2.2) | IC50 (N-type CaV2.2; SH-SY5Y) [µM] | Emax (N-type CaV2.2; SH-SY5Y, n = 3, read-out: Emax, inhibition for N-type CaV2.2) [%] | Inhibition of Ca2+ responses, in words [2] | Further reduced potency for CaV3.3 compared to 2 (CaV3.3; FLIPR) [fold] | IC50 (CaV3.3) [µM] | IC50 (CaV3.2) [µM] | Potency for T-type window currents versus activated current, in words [3]
CNC(=O)C(NC(=O)C(C)(c1c[nH]c2ccccc12)c1c[nH]c2ccccc12)C(=O)c1c[nH]c2ccccc12 (stereo not drawn) [Compound 1, Pseudellone C] | 322 ± 21.6 | partial blocking | 53.5 ± 2.72 | 63.6 | partial blocking | 82.5 ± 7.6 | 39.3 | weak calcium channel blocker | > 3 | 26.6 ± 1.23 | 44 ± 1.6 | 
CC(C(=O)O)(c1c[nH]c2ccccc12)c1c[nH]c2ccccc12 [Compound 4, 2,2-di(1H-indol-3-yl)propanoic Acid] | 264 ± 11.9 |  | 72.28 ± 0.41 |  |  | 179 ± 19.7 |  | poor inhibition |  | 119 ± 8.66 | 132 ± 6.13 | 
C[C@@H](NC(=O)Cc1ccc(C2CC2)cc1)c1ccc(OCC(F)(F)F)cn1 [TTA-A2] |  |  |  |  |  |  |  |  |  |  |  | better potency for T-type window currents than the activated current
CC(C(=O)N[C@@H](Cc1c[nH]c2ccccc12)C(=O)O)(c1c[nH]c2ccccc12)c1c[nH]c2ccccc12 [Compound 3a, (2,2-di(1H-indol-3-yl)propanoyl)-L-tryptophan] | 132 ± 1.63 |  | 122 ± 5.96 |  |  | 147 ± 1.72 |  | poor inhibition |  | 90.1 ± 4.99 | 80.7 ± 6.21 | 
CC(C)(C)NC(=O)CN1CCC(CNC(=O)c2cc(F)cc(Cl)c2)CC1 [Compound Z944] |  |  |  |  |  |  |  |  |  |  |  | better potency for T-type window currents than the activated current
O=c1[nH]c2ccccc2n1C1CCN(CCCC(c2ccc(F)cc2)c2ccc(F)cc2)CC1 [pimozide, reference compound] |  |  |  |  |  |  |  |  |  | 7.71 ± 0.7 | 4.2 ± 1.06 | 
